These results are taken from ChEMBL document CHEMBL1142290, “Synthesis of novel oxazolidinone antimicrobial agents” (2008).

SMILES strings stand for the structures. Converted amounts (≈) assume the structure as drawn. The source made the active and inactive calls. The rule behind the calls is not given here.

For test [1], the system named is Staphylococcus aureus. Description: Antimicrobial activity against Staphylococcus aureus ATCC 29213 after 24 hrs. Format: functional. The settings on record: ATCC 29213, 24 h.
In test [2] the test system is Escherichia coli. The test is described as follows: Antimicrobial activity against Escherichia coli ATCC 25922 upto 100 ug/ml after 24 hrs. The test is classed as functional, organism-based.

In the case of `O=C(O)c1cn(C[C@H]2CN(c3ccc4c(c3)Oc3ccccc3O4)C(=O)O2)nn1`, the MIC in test [1] is more than 50 µg/mL. Further, the outcome in test [2] was inactive.

As to `CC(=O)NC[C@H]1CN(c2ccc3c(c2)Oc2ccccc2O3)C(=O)O1`, the MIC in test [1] turned out to be 2 µg/mL (≈ 5.88 µM).

For `CCCCc1cn(C[C@H]2CN(c3ccc4c(c3)Oc3ccccc3O4)C(=O)O2)nn1`, in test [1], the MIC is more than 50 µg/mL. Moreover, in test [2], the outcome was inactive.

Molecule `O=C1O[C@@H](Cn2ccnn2)CN1c1ccc2c(c1)Oc1ccccc1O2` returned an MIC in test [1] of more than 50 µg/mL. In addition, the result in test [2] was inactive.
